For assay [1], the target named is T1, stachydrine demethylase (Sinorhizobium meliloti, UniProt Q92ZP9).
T1 construct: gene stc2
As to conditions: 2.3 A; pH 7 HEPES; 25 mM hexaamine CoCl2.

A further assay concerns the target T2, lysozyme (Gallus gallus, UniProt P00698).
T2 construct: gene LYZ
The assay can be described thus: X-ray structure of co-crystal (fragment screen). The following applies: pH 4.6 acetate, 4% NaCl. The format is binding.

The target of assay [2] is T1, stachydrine demethylase. The assay can be described thus: X-ray structure of co-crystal; demethylated product seen. The format is binding. As to conditions: 2.3 A; pH 7 HEPES; 25 mM hexaamine CoCl2; N-methyl group cleaved on X-ray exposure, only L-proline in the density.
In another assay the target is T3, trypsin (Bos taurus, UniProt P00760).
T3 construct: gene PRSS1
T3 sequence (P00760 24-246): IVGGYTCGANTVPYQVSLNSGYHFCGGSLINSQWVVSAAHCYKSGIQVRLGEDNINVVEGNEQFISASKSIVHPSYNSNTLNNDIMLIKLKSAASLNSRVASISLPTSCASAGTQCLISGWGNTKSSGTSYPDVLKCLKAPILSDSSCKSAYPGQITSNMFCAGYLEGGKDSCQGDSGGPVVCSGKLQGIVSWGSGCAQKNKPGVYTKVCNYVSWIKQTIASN
In words: X-ray structure of co-crystal (fragment screen). The format is binding. As to conditions: pH 7 HEPES, 10 mM CaCl2.

Each structure is given as a SMILES string.

As for `O=C(O)[C@@H]1CCCN1` [L-proline], the “X-ray structure of co-crystal” value at stachydrine demethylase [1] is given as “When L-proline was co-crystallized with stachydrine demethylase, the L-proline was observed in the electron density”.
Take `CC(=O)N[C@H]1C(O)O[C@H](CO)[C@@H](O)[C@@H]1O` (stereo partly drawn) [N-acetylglucosamine]: the “X-ray structure of co-crystal (fragment screen)” value on lysozyme is reported as “The known N-acetylglucosamine ligand was easily identified in the electron density”.
`CN1CCC[C@H]1C(=O)O` [N-methylproline]: at stachydrine demethylase [2], the “X-ray structure of co-crystal; demethylated product seen” value is on record as “exposure to X-rays quickly induces enzymatic cleavage of the N-methyl group, leaving behind L-proline”.
Regarding `N=C(N)c1ccccc1` [benzamidine], the “X-ray structure of co-crystal (fragment screen)” value on trypsin (known control) is recorded as “the known benzamidine ligand in the best diffracting no-hit screen”; on lysozyme, “Benzamidine was also observed to bind to lysozyme, a previously unreported result (PDB entry 4n8z)”.
On to `c1c[nH]cn1` [imidazole], for which the “X-ray structure of co-crystal (fragment screen)” value on trypsin (10 mg/ml benzamidine present, allosteric site distant from the active site) is reported as “imidazole (a previously unreported allosteric binding mode that is distant from the active site; PDB entry 4ncy)”.
